Laboratory results from patent US20030180355A1, “Combination therapy for hypertension” (priority 2001, published 2003).

Key:
[1] = system: uninephrectomized anesthetized rats; experiment: Model of acute angiotensin-mediated renal hypertension in anesthetized rats; format: in vivo, Sprague-Dawley rats; details: enalapril 100 μg/kg i.v.
Experimental: Male Sprague-Dawley rats, weighing 250-300 g, were anaesthetized with pentobarbital sodium (35 mg/kg, i.p.) and placed on a thermic blanket. The temperature was maintained at 37° C. with a thermoregulator via a rectal probe. The animals were tracheotomized to facilitate spontaneous breathing. A polyethylene catheter was placed in the left jugular vein to allow for infusion of pentobarbital sodium to maintain anesthesia. The left femoral vein and artery were cannulated with polyethylene catheters to allow drugs administration and to monitor blood pressure, respectively.
The animals then underwent a left nephrectomy by excising the left kidney via a flank incision. The right kidney and renal vein, artery and ureter then were exposed via a right retroperitoneal incision, under a dissecting microscope. Silk threads were placed around both vessels and ureter. The cavity was then covered with Vaseline oil. See Recordati, et al. 2000, J. Hypertension, 18:1277-1287.
ECG (lead II) was recorded by means of subcutaneous electrodes. After 30-60 minutes of basal recordings of arterial blood pressure and heart rate the threads around the renal vessels and ureter were tied close to the renal hilum to induce complete renal ischemia of the right kidney. After 2 hours of ischemia (designed as “120” in Tables 1-4), the threads were removed to allow renal reperfusion and urine output. The reopening of the renal hilum and restoration of renal circulation, induced an increase in blood pressure that peaked 5-10 minutes and lasted about 60 minutes. Drugs (vehicle, enalapril (100 μg/kg), lercanidipine (10 μg/kg), or both lercanidipine (10 μg/kg) and enalapril (100 μg/kg)) were administered intravenously at 5 minutes after reperfusion began (defined as 125 in Tables 4-7).
Statistical analysis was performed during the reperfusion time (time 125-180 minutes). To evaluate the statistical differences among the treatment groups, data were analyzed using a three-way ANOVA (analysis of variance) with repeated measures on factor time and pre-planned multiple comparisons. Statistical analysis was performed by means of general linear model procedure (GLM) with SAS software version 6.12.

[2] = system: patients with a sitting diastolic blood pressure (SDBP) of 95-109 mm Hg; experiment: Clinical study, factorial design, randomized double-blind placebo-controlled, 8 weeks; format: in vivo, human; details: for Therapeutic response rate, study participants with SDBP < 90 mm Hg / Change in SDBP / Change in SSBP: 8 weeks; for Change in SDBP / Change in SSBP: vs baseline, response surface analysis; for Change in SSBP: confidence interval in parentheses; for number of patients who discontinued the study because of an adverse event / number of patients with any adverse events related to study drug: 55 patients randomized
Experimental: A multi-center, randomized, double-blind, placebo-controlled, parallel groups, factorial design trial was conducted. After a 14-day (±3 days) screening/washout period during which patients were washed from ongoing antihypertensive therapy, eligible patients with a sitting diastolic blood pressure (SDBP) of 95-109 mm Hg, entered the 28 day (±3 days) single-blind placebo run-in period during which they received placebo once-daily. Patients who were not responsive to this treatment and whose SDBP was 95-109 mm Hg, were randomized into an eight-week double-blind treatment phase. Baseline measurements were taken on Study Day 0 with post-therapy assessments during the double blind period scheduled on Study Days 14, 28, 42, and 56. Laboratory tests were conducted prior to the beginning of the screening period and on study Day 0 as well as at the end of the study.
The number of patients screened was greater than 800; 798 entered the 4-week single-blind placebo period, and 663 eligible patients were randomized into the 8-week double-blind treatment. The number in parenthesis represents the number of patients in each group available for efficacy evaluation.
The patients were randomized into one of the above noted 12 treatment groups. Tablets of lercanidipine (5 and 10 mg) and enalapril (2.5 mg) were encapsulated in the appropriate doses, in order to assure double-blind conditions. All tablets were of commercial origin except for the 5 mg lercanidipine, which were prepared in accordance with Table 3.
Patients were instructed to take one capsule of the study medication once daily 15 minutes before breakfast, between 6 and 10 am. All medications were to be withheld on mornings of clinic visits until after blood pressure evaluations at 22-26 hours following the previous day's dose of study medication.
1. Trough (Minimum) (24±2 hours post-dose) sitting diastolic blood pressure (SDBP)
2. Trough (24±2 hours post-dose) sitting systolic blood pressure (SSBP)
4. Percent of patients with SDBP<90 mm Hg
The primary efficacy variable was the change from baseline to mean trough SDBP after 8 weeks of double-blind treatment. The analysis was performed in an “intent-to-treat” fashion, including all randomized patients who had received at least one dose of double-blind treatment, and had at least one post-baseline SDBP measurement 18-48 hours post-dose. In case of premature withdrawal from the study the last observation carried forward (LOCF) algorithm was applied (“end point analysis”).
The overall treatment comparison was performed using an analysis of covariance (ANCOVA) with treatment and centers as main effects and baseline value as covariate.
An additional ANOVA was performed using the factorial model in order to test for the interaction of lercanidipine dose and enalapril dose at each time-point.
The number of patients who discontinued the study because of an adverse event is reported in parenthesis.

[3] = following oral administration of enalapril; cited from earlier work
[4] = time 120 min, end of ischemia, before drug
[5] = time 125 min, reperfusion, before drug
[6] = time 130 min, drug given at 125 min
[7] = time 135 min, drug given at 125 min
[8] = time 150 min, drug given at 125 min
[9] = time 165 min, drug given at 125 min
[10] = time 180 min, drug given at 125 min

## CCOC(=O)[C@H](CCc1ccccc1)N[C@@H](C)C(=O)N1CCC[C@H]1C(=O)O [enalapril, (S)-1-[N-1-(ethoxycarbonyl)-3-phenylpropyl]-L-alanyl-L-proline]
[1]; time 0 min, basal
  DBP (diastolic blood pressure): 69.6 ± 2.1 mmHg
  MBP (mean blood pressure): 83.4 ± 2.1 mmHg
  SBP (systolic blood pressure): 111.0 ± 2.6 mmHg
[1]; [4]
  DBP (diastolic blood pressure): 65.1 ± 3.5 mmHg
  MBP (mean blood pressure): 80.0 ± 3.9 mmHg
  SBP (systolic blood pressure): 109.9 ± 5.1 mmHg
[1]; [5]
  DBP (diastolic blood pressure): 124.9 ± 4.3 mmHg
  MBP (mean blood pressure): 142.2 ± 5.4 mmHg
  SBP (systolic blood pressure): 176.8 ± 8.1 mmHg
[1]; [6]
  DBP (diastolic blood pressure): 109.9 ± 4.1 a mmHg
  MBP (mean blood pressure): 122.0 ± 4.1 b mmHg
  SBP (systolic blood pressure): 146.1 ± 4.5 c mmHg
[1]; [7]
  DBP (diastolic blood pressure): 107.1 ± 4.5 a mmHg
  MBP (mean blood pressure): 119.4 ± 4.2 b mmHg
  SBP (systolic blood pressure): 143.9 ± 4.1 b mmHg
[1]; [8]
  DBP (diastolic blood pressure): 95.9 ± 7.9 b mmHg
  MBP (mean blood pressure): 109.0 ± 7.4 c mmHg
  SBP (systolic blood pressure): 135.4 ± 6.6 b mmHg
[1]; [9]
  DBP (diastolic blood pressure): 86.5 ± 8.5 b mmHg
  MBP (mean blood pressure): 100.5 ± 8.0 b mmHg
  SBP (systolic blood pressure): 128.5 ± 7.6 a mmHg
[1]; [10]
  DBP (diastolic blood pressure): 78.9 ± 7.6 a mmHg
  MBP (mean blood pressure): 93.7 ± 7.2 a mmHg
  SBP (systolic blood pressure): 123.4 ± 6.9 mmHg
[1]; three-way ANOVA, reperfusion time 125-180 min, lercanidipine 10 μg/kg
  p value on mean blood pressure vs lercanidipine: p < 0.001
[2]; enalapril 5 mg once daily
  Therapeutic response rate, study participants with SDBP < 90 mm Hg: 28%
  Change in SDBP: −7.7
  Change in SSBP: −9.6 (8.1-11.2)
  number of patients who discontinued the study because of an adverse event: 1
  number of patients with any adverse events related to study drug: 9
[2]; enalapril 10 mg once daily
  Therapeutic response rate, study participants with SDBP < 90 mm Hg: 43%
  Change in SDBP: −8.8
  Change in SSBP: −11.1 (9.1-13.2)
  number of patients who discontinued the study because of an adverse event: 1
  number of patients with any adverse events related to study drug: 12
[3]
  time of peak plasma levels of enalaprilat: 3 to 4 h
